For one compound, IC50 results are on record in article PMC5312290, “Momordin Ic, a new natural SENP1 inhibitor, inhibits prostate cancer cell proliferation” (Oncotarget, 2016).

The assay addresses SUMO-specific protease 1 (SENP1) (Homo sapiens, UniProt Q9P0U3).

Chain of SUMO-specific protease 1 (SENP1) (Q9P0U3 419-644 limits assumed): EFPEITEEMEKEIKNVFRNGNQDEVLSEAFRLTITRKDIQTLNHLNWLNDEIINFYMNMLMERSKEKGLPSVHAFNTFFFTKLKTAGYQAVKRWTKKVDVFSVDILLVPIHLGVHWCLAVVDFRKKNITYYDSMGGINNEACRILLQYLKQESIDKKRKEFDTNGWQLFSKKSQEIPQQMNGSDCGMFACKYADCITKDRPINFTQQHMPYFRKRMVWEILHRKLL

`CC1(C)CC[C@]2(C(=O)O)CC[C@]3(C)C(=CC[C@@H]4[C@@]5(C)CC[C@H](O[C@@H]6O[C@H](C(=O)O)[C@@H](O)[C@H](O[C@@H]7OC[C@@H](O)[C@H](O)[C@H]7O)[C@H]6O)C(C)(C)[C@@H]5CC[C@]43C)[C@@H]2C1` [Mc, Momordin Ιc]: the midpoint of inhibition, the IC50, lay at 15.4 µM.
